What was measured:
Maximum tolerated dose = assay type: in vivo, mouse; conditions: single-dose subcutaneous, uninfected ICR mice, three mice per dose, monitored 7 days
Protocol: Animals: All animal studies were performed using male ICR mice (25 ± 2 gr). The Technion Animal Care and Use committee approved all procedures, care, and handling of animals. Ethics approval codes: IL0800519, IL0640421, IL0550618, IL1811217.
The maximum tolerated dose (MTD) was determined after a single-dose subcutaneous (S.C) administration of C14(ω5)OOc10O using three mice per dose. Animals were monitored for adverse effects for 7 days after injection.

Organ bio-distribution = assay type: in vivo, mouse; conditions: 3 h post single S.C 12.5 mg/kg, ICR mice, organ homogenates, LC-MS
Protocol: C14(ω5)OOc10O was subjected to preliminary pharmacokinetics (PK) analysis to determine its plasma concentrations or organ bio-distribution following S.C administration to non-neutropenic pathogen-free mice. OAC quantification was performed by LC-MS as follows: blood was drawn at various time intervals and plasma was separated by centrifugation (5000 RCF, 10 min). Organs were excised and homogenized. Then, OAC was extracted from both plasma and organ homogenates by incubation with 50% acetonitrile: 50% methanol at room temperature with shaking for 30 min, and subsequent centrifugation (5000 RCF, 10 min). Supernatants were diluted two-fold in distilled water and analyzed by LC-MS (ULC ultimate 3000 DIONEX, MS BRUKER Maxis impact). Quantification was based on standard calibration curves, prepared by spiking fresh mice plasma (for PK) or water (for organ bio-distribution) with various amounts of the tested OAC (final concentrations from 2.5 to 50 µg/mL) and subjected to an identical procedure as described above.
Figure 10 Systemic efficacy studies using mouse infection models. (a,b) Data points represent colony forming unit (CFU) counts harvested from infected mice (8 and 10 mice per group, respectively). […]

[1] = tested on: E. coli ΔacrAB mutant AG100A; test: microbe, parasite or virus in culture; assay type: cell-based, Escherichia coli; conditions: isogenic ΔacrAB mutant AG100A
Protocol: (§1) Bacteria:Escherichia coli strains: 25922 and 35218 (ATCC, Manassas, VA, USA), 14182 (clinical isolate), Ag100 and Ag100A [34] (ΔacrAB) are two K-12 isogenic mutantsand the engineered mutant ML-35p. Additional ESKAPE species tested: Klebsiella pneumoniae strains 1287 and 224 (clinical isolates), Acinetobacter baumannii ATCC strain 19606, Pseudomonas aeruginosa ATCC strains 9027 and 27853. Bacteria were grown in Luria–Bertani (LB) broth (0.5% NaCl, 0.5% yeast extract, 1% tryptone, pH = 7), except for E. coli ML-35p that was grown in tryptic-soy broth.
(§2) Peptide self-assembly was determined by static light scattering measurements as described. Hemolysis was determined by measuring hemoglobin leakage from washed human RBCs, as described. Minimal inhibitory concentration (MIC) was determined using the microdilution assay, as described. Bactericidal kinetics were determined by mixing bacteria with rifampin, OAC, or their combinations, as described. Data were obtained from three independent assays performed in duplicate.
(§3) The wild-type E. coli strain AG100 and its isogenic ΔacrAB mutant AG100A were used to determine the MIC of OACs and of two known acrAB-TolC substrates: the AMP LL-37 and the macrolide antibiotic erythromycin that are normally inefficient against GNB.

E. coli strain AG100 = test: microbe, parasite or virus in culture; assay type: cell-based, Escherichia coli; conditions: strain AG100
Protocol: as §1, §2, §3

SMILES: CCCCC=CCCCCCCCC(=O)N[C@@H](CCCN)C(=O)N[C@@H](CCCN)C(=O)NCCCCCCCCCC(=O)N[C@@H](CCCN)C(N)=O [C14(ω5)OOc10O]
- Maximal tolerated dose (MTD) (Maximum tolerated dose): higher than 40 mg/kg
- Concentration in liver and kidneys relative to lymph nodes, thighs, bladder, brain or spleen (Organ bio-distribution): at least 3 times
- MIC, Ag100A [1]: 6.2 µM
- MIC (E. coli strain AG100): 25 µM

From PMC8621570, “Mechanistic Studies of Antibiotic Adjuvants Reducing Kidney’s Bacterial Loads upon Systemic Monotherapy” (Pharmaceutics, 2021)
